Measurements published in ChEMBL document CHEMBL3425406, “Design, Synthesis, and Evaluation of Tetrasubstituted Pyridines as Potent 5-HT2C Receptor Agonists” (ACS Med Chem Lett, 2015).

Assays:
[1] = Lipophilicity, log D of the compound; format: physicochemical; conditions: octanol/water
[2] = biological target: T1, 5-hydroxytryptamine receptor 2B (Homo sapiens, UniProt P41595); experiment: Agonist activity at human recombinant 5-HT2B receptor expressed in CHOK1 cells assessed as induction of Ca2+ mobilization after 1 hr by FLIPR assay; format: functional, cell-based, CHO-K1
[3] = biological target: T1, 5-hydroxytryptamine receptor 2B; experiment: Agonist activity at human recombinant 5-HT2B receptor expressed in CHOK1 cells assessed as induction of Ca2+ mobilization at 30 uM after 1 hr by FLIPR assay relative to 5-HT; format: functional, cell-based; conditions: CHO-K1
[4] = Permeability across dog RRCK cells; format: ADME, cell-based, Canis lupus familiaris, MDCKII-LE; conditions: MDCK, read-out: permeability
[5] = system: MDR1; experiment: Apparent permeability across apical to basolateral side in MDCK cells expressing MDR1; format: ADME, cell-based, Canis lupus familiaris; conditions: dog
[6] = system: MDR1; experiment: Efflux ratio of apparent permeability across basolateral to apical over apical to basolateral side in MDCK cells expressing MDR1; format: ADME, cell-based, Canis lupus familiaris; conditions: dog
[7] = biological target: T1, 5-hydroxytryptamine receptor 2B; experiment: Inhibition of Cy3B conjugated serotonin analogue binding to human recombinant 5-HT2B receptor expressed in CHOK1 cells after 60 mins by fluorescence polarization assay; format: cell-based; conditions: CHO-K1

T1 sequence (P41595 whole entry): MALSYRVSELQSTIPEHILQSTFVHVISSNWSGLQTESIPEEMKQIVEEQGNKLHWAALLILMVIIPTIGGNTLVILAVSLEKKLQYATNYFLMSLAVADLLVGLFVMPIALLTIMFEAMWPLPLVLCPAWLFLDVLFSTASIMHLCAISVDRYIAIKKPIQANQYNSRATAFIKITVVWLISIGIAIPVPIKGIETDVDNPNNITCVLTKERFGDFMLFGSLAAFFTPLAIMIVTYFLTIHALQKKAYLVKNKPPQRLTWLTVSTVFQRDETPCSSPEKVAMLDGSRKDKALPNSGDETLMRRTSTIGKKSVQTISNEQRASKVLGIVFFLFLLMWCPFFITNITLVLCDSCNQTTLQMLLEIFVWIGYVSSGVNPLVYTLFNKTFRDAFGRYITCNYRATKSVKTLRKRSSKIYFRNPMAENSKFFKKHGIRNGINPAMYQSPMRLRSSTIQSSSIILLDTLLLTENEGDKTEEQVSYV

| SMILES | logD [1] | EC50 [2] [µM] | Emax [3] [%] | Papp [4] [×10⁻⁶ cm/s] | Papp A→B [5] [×10⁻⁶ cm/s] | efflux ratio [6] | Kb [7] [µM] |
| --- | --- | --- | --- | --- | --- | --- | --- |
| CC(C)Nc1nc(Cc2ccccc2)cc2c1CCNCC2 | 1 | 0.033 | 32 | 12 | – | – | – |
| c1ccc(Cc2cc3c(cn2)CCNCC3)cc1 | 0.5 | 0.027 | 53 | 18 | 3.9 | 1.5 | – |
| CN(C)c1nc(Cc2ccccc2)cc2c1CCNCC2 | 0.6 | 0.03 | 38 | 8 | 2.1 | 2.2 | – |
| CCCNc1nc(Cc2ccccc2)cc2c1CCNCC2 | 1 | 0.027 | 38 | 4 | 1.5 | 3.5 | – |
| CCNc1nc(Cc2ccccc2)cc2c1CCNCC2 | 0.6 | 0.018 | 28 | 7 | 1.8 | 2.3 | – |
| c1ccc(Cc2cc3c(c(NCC4CC4)n2)CCNCC3)cc1 | 1.2 | 0.022 | 51 | 2 | 0.8 | 6.1 | – |
| CNc1nc(Cc2ccccc2)cc2c1CCNCC2 | 0.4 | 1.48 | 69 | 8 | 2.5 | 2.8 | – |
| CC(C)CNc1nc(Cc2ccccc2)cc2c1CCNCC2 | 1.7 | – | – | – | – | – | – |
| c1ccc(CNc2nc(Cc3ccccc3)cc3c2CCNCC3)cc1 | 1.7 | – | – | 2 | 0.6 | 3.6 | 0.121 |
